Patent US8916711B2, “Imidazothiazole-chalcone derivatives as potential anticancer agents and process for the preparation thereof” (Council of Scientific and Industrial Research, priority 2009, dated 2014)

Tests used:
SNB-19 = assay: NCI in vitro cytotoxicity (SRB, 48 h), CNS panel; format: cell-based; conditions: Homo sapiens; SNB-19, CNS; 48 h exposure
UACC-62 = assay: NCI in vitro cytotoxicity (SRB, 48 h), Melanoma panel; format: cell-based; conditions: Homo sapiens; UACC-62, Melanoma; 48 h exposure

Compound	GI50 (SNB-19) [µM]	GI50 (UACC-62) [µM]
COc1cc(C(=O)/C=C/c2c(-c3ccc(F)cc3)nc3sc(C)cn23)cc(OC)c1OC [Compound 19e, (E)-3-(6-(4-fluorophenyl)-2-methylimidazo[2,1-b]thiazol-5-yl)-1-(3,4,5-trimethoxyphenyl)prop-2-en-1-one]	87.8	2.91
COc1cc(C(=O)/C=C/c2c(-c3ccc(F)cc3)nc3sccn23)cc(OC)c1OC [Compound 7e, (E)-3-(6-(4-fluorophenyl)imidazo[2,1-b]thiazol-5-yl)-1-(3,4,5-trimethoxyphenyl)prop-2-en-1-one]	3.73	1.82
COc1ccc(C(=O)/C=C/c2c(C(F)(F)F)nc3sccn23)cc1OC [Compound 8f, (E)-1-(3,4-dimethoxyphenyl)-3-(6-(trifluoromethyl)imidazo[2,1-b]thiazol-5-yl) prop-2-en-1-one]	4.25	4.85
COc1cc(C(=O)/C=C/c2c(C(F)(F)F)nc3sccn23)cc(OC)c1OC [Compound 7f, (E)-3-(6-(trifluoromethyl)imidazo[2,1-b]thiazol-5-yl)-1-(3,4,5-trimethoxyphenyl)prop-2-en-1-one]	2.67	1.52
COc1ccc(-c2nc3sccn3c2/C=C/C(=O)c2cc(OC)c(OC)c(OC)c2)cc1 [Compound 7a, (E)-3-(6-(4-methoxyphenyl)imidazo[2,1-b]thiazol-5-yl)-1-(3,4,5-trimethoxyphenyl) prop-2-en-1-one]	3.54	2.08
